From patent US10059699B2, “Tetrahydroquinoline derivatives as bromodomain inhibitors” (GlaxoSmithKline Intellectual Property (No.2) Limited, priority 2014, dated 2018)
Like-named read-outs stand apart in the source and are kept apart here. Marks after values point to notes of the source that are not given here.

Key:
Immunoglobulin-1 (IgG1) = assay: TNP-KLH induced IgG1 production mouse assay; type: in vivo, mice; details: 30 mg/kg oral; for Day 14 IgG1: 14 day dosing, male CD1 mice; for % reduction in IgG1 from vehicle: day 14
Experimental: The compound was assayed for its ability to inhibit trinitrophenol-keyhole limpet hemocyanin (TNP-KLH) induced Immunoglobulin-1 (IgG1) production in mice. Male CD1 mice (Charles River Laboratories, 8 per group) received a single oral administration of compound (in 1% (w/v) methylcellulose, aq 400) either once every day (QD), once every other day (QOD) or once every 72 hours (QOED) over a 14 day dosing period. On day 1 of the study, each mouse received a single bolus intraperitoneal (ip) administration of TNP-KLH (100 μg/kg, T-5060-25, Lot #021562-06) 1 hour after oral administration of compound. Serial blood samples were collected at 1 hour post oral compound administration via tail veil on days 1, 4, 7, 9 and 11 or via cardiac puncture (terminal sample) on day 14 and the serum harvested from the blood samples was frozen at −80° C. On the day of analysis, the serum was thawed to room temperature and levels of IgG1 were measured using a TNP ELISA (developed in-house) and read on a SpectraMax 190 spectrophotometer (Molecular Devices, CA). The mean IgG1 values were generated and the mean percent IgG1 reduction on day 14 following treatment with compound was calculated compared to the corresponding vehicle treated group. Levels of significance were calculated by analysis of variance (ANOVA) followed by Dunnett's multiple comparison t-test using Graphpad Prism version 5.04 (Graphpad Software, San Diego, Calif.). Statistical differences were determined as […].

[1] = test system: NUT midline carcinoma cells (11060); assay: Cancer cell line proliferation assay, 11060; type: cell-based; details: 11060 cells, 72 hours, CellTiter Glo, n = 3
Experimental: The impact of the compound of Examples 7 and 14 on cancer cell proliferation was determined using patient derived NUT midline carcinoma cells (11060), multiple myeloma cells (OPM-2, DSMZ) and biphenotypic B myelomonocytic leukaemia cells (MV-4-11, ATCC) in a 72 hour proliferation assay. 11060 and OPM-2 cells were maintained in RPMI 1640 medium (Invitrogen) supplemented with 10% HI-FBS (Heat-Inactivated Fetal Bovine Serum, Hyclone) and 2 mM L-glutamine (Invitrogen) at 37° C. and an atmosphere of 5% CO2. MV-4-11 cells were maintained in IMDM media supplemented with 10% HI-FCS, 2 mM L-glutamine, 1× Non-essential amino acids (Invitrogen) and 1× sodium pyruvate (1 mM) (Invitrogen). Cells were diluted to 1.11×10^5 cells/mL and 90 μL/well plated into black sided, clear bottomed 96 well tissue culture plates (Corning), using growth media supplemented with penicillin/streptomycin (Invitrogen). Cells were incubated overnight at 37° C. and in one plate, ATP levels were measured using the CellTiter Glo assay (Promega) according to the manufacturer's instructions, to give a baseline reading (t=0). 3-fold serial dilutions of compounds ranging from 6 mM to 0.3 μM were prepared in 100% DMSO. The DMSO dilution series was diluted 20-fold in growth media before 10 μl of the resulting dilutions were added to the appropriate wells of the remaining cell plates. The final compound concentrations in the wells ranged from 30 μM to 1.5 nM in 0.5% DMSO. Cells were incubated with compounds for 72 hours before assaying for ATP content using CellTiter Glo (t=72). CellTiter Glo data from each t=72 time point was normalised to the relevant t=0 time point data, and expressed as % t=0.

IC50 ([1]; full curve fit, read-out: Cellular Proliferation: pIC50 (converted)): 1 µM
IC50 ([1]; read-out: Cellular Proliferation: gpIC50 (converted)): 0.631 µM
Compound: CC(=O)N1c2ccc(C(N)=O)cc2[C@H](Nc2ncc(Cl)cn2)C[C@@H]1C [Example 14, (2S,4R)-1-acetyl-4-((5-chloropyrimidin-2-yl)amino)-2-methyl-1,2,3,4-tetrahydroquinoline-6-carboxamide]
Day 14 IgG1 (Immunoglobulin-1 (IgG1); QD): 127 ng/mL
% reduction in IgG1 from vehicle (Immunoglobulin-1 (IgG1); QD): 98*** %
Day 14 IgG1 (Immunoglobulin-1 (IgG1); QOD): 373 ng/mL
% reduction in IgG1 from vehicle (Immunoglobulin-1 (IgG1); QOD): 93*** %
Day 14 IgG1 (Immunoglobulin-1 (IgG1); QOED (every 72 hours)): 3162 ng/mL
% reduction in IgG1 from vehicle (Immunoglobulin-1 (IgG1)): 41%
